Measured values reported in patent US8580920B2, “Peptides useful for skin lightening” (Conopco, Inc., priority 2009, dated 2013).
Read-outs that look alike come from different tables or passages of the source. Bridges are numbered along the chain shown (N, C = ends).

System: human epidermal keratinocytes neonatal (HeKn) and human epidermal melanocytes neonatal darkly pigmented (HeMnDP) co-culture
Conditions: 72 hours, with respect to untreated control
Method: The ability of various materials to act as skin lightening agents was measured using the melanin content assay. The experiments were carried out as per the following procedure:
A 2:1 ratio mix containing 100 000 human epidermal keratinocytes neonatal (HeKn) (neonatal foreskin keratinocytes from Cascade Biologicals) and 50 000 human epidermal melanocytes neonatal darkly pigmented (HeMnDP) (darkly pigmenting cells neonatal foreskin melanocytes from Cascade Biologicals) were seeded per well, in a 24 well cell culture plate, to establish a co-culture system. After overnight incubation, cells were treated with fresh media containing the test actives (untreated or vehicle controls set up in parallel) and incubated for 72 hours after treatment. Then media was removed and replaced with 80 μl of dimethyl sulphoxide (DMSO). The plate was further incubated with DMSO for 1 hour at 65° C., after which the well contents were triturated and the same sample used to assay both for melanin content (read at 450 nm in a plate reader) and protein estimation (regular BiCinchoninic Acid method, kit from Peirce). % reduction in melanin was with respect to untreated control.

O=c1cc(CO)occ1O [Kojic acid, reference compound]
% REDUCTION IN MELANIN CONTENT (100 μM): 19 (±1) %

-Gly-Cys-His-Gly-His-Pro-Phe-Ala-Pro-Cys-Ala- [Peptide 2] (H-GCHGHPFAPCA-OH; disulfide 2-10; N-terminus and C-terminus assumed; SMILES C[C@H](NC(=O)[C@@H]1CSSC[C@H](NC(=O)CN)C(=O)N[C@@H](Cc2c[nH]cn2)C(=O)NCC(=O)N[C@@H](Cc2c[nH]cn2)C(=O)N2CCC[C@H]2C(=O)N[C@@H](Cc2ccccc2)C(=O)N[C@@H](C)C(=O)N2CCC[C@H]2C(=O)N1)C(=O)O)
% REDUCTION IN MELANIN CONTENT (46 μM): 12 (±10) %

-Gly-Cys-Leu-Ser-Arg-His-Val-Leu-Gln-Cys-Ala- [Peptide 1]
% REDUCTION IN MELANIN CONTENT (42 μM): 5 (±2) % | % REDUCTION IN MELANIN CONTENT (420 μM): 22 (±3) %
